For one assay, the system named is coronavirus COVID-19. In kind it is in vivo. Conditions: after 4 days of osteltamivir alone, started at time of contact.
The next assay concerns COVID-19 coronavirus. Type of assay: in vivo, human. The conditions noted are these: group of elderly cruise travelers.

As for `CCOC(=O)C1=C[C@@H](OC(CC)CC)[C@H](NC(C)=O)[C@@H](N)C1` [osteltamivir, oseltamivir], in the assay with coronavirus COVID-19, the “blood result for COVID-19 virus” value was “positive”.
With `CCN(CC)CCCC(C)Nc1ccnc2cc(Cl)ccc12` (stereo not drawn) [chloroquine], in the assay on COVID-19 coronavirus, the “contraction of COVID-19 coronavirus” value was “None contract COVID-19 coronavirus” and the “test for the virus upon arrival home after the cruise” value is listed as “negative”.

Values taken from US20230158259A1, “PRODUCTS OF MANUFACTURE AND METHODS FOR TREATING, AMELIORATING OR PREVENTING MICROBIAL INFECTIONS” (TOPELIA AUST LIMITED, priority 2020, published 2023).
